Earlier results, collected in patent US20030175349A1, “Pharmaceutical compostion for extended/sustained release of a therapeutically active ingredient” (COUNCIL OF SCIENTIFIC AND INDUSTRIAL RESEARCH, priority 2002, published 2003).

| SMILES | parts of water in which 1 part is soluble (at 20° C.) | solubility in water (in words) |
| --- | --- | --- |
| CC(=O)OCC(COC(C)=O)OC(C)=O [triacetin] | 14 parts of water |  |
| CC(=O)Oc1ccccc1C(=O)O [Aspirin, aspirin] |  | slightly soluble in water |
| Cc1ccc(S(=O)(=O)NC(=O)NN2CC3CCCC3C2)cc1 (stereo not drawn) [Gliclazide, gliclazide] |  | practically insoluble in water |
